Source: patent US20230013669A1, “Antibacterial Treatment Using a Cannabinoid and an Active Agent” (priority 2019, published 2023)
Where “and” joins values, the source holds several entries; their conditions need not be identical. Equal entries are not always repeated.

System: Acinetobacter baumannii ATCC 19606 (GN_034)
Test: Synergy of cannabidiol with cell-wall disrupting agent (CBD MIC in combination, FICI)
Type: cell-based
Method: The compounds were stored short term at 4° C.
Analysis was performed using Microsoft Excel.

[1] = CBD with Colistin, Acinetobacter baumannii ATCC 19606
[2] = CBD with MCC_6442, Acinetobacter baumannii ATCC 19606

In the case of `C=C(C)C1CCC(C)=CC1c1c(O)cc(CCCCC)cc1O` (centres unmarked) [Cannabidiol, 2-[3-methyl-6-(1-methylethenyl)-2-cyclohexen-1-yl]-5-pentyl-1,3-benzenediol], the FICI (CBD with Aztreonam at 8 μg/mL, CBD MIC taken as 256 μg/mL) is reported as 0.375, the FICI (CBD with Aztreonam at 16 μg/mL, CBD MIC taken as 256 μg/mL) is reported as 0.5 and the FICI range (CBD with Aztreonam, all tested concentrations (Table 74)) is reported as 0.25-1.06. It also gave an FICI (CBD with Cefepime at 0.25 μg/mL, CBD MIC taken as 256 μg/mL) of 1.016, an FICI (CBD with Cefepime at 0.5 μg/mL, CBD MIC taken as 256 μg/mL) of 1.031 and an FICI (CBD with Cefepime at 1 μg/mL, CBD MIC taken as 256 μg/mL) of 1.0625. It also gave an FICI (CBD with Cefepime at 2 μg/mL, CBD MIC taken as 256 μg/mL) of 1.125, an FICI (CBD with Cefepime at 4 μg/mL, CBD MIC taken as 256 μg/mL) of 0.375 and an FICI (CBD with Cefepime at 8 μg/mL, CBD MIC taken as 256 μg/mL) of 0.5625. The FICI range (CBD with Cefepime, Synergy table (Table 81)) was 0.38, the FICI range (CBD with Cefepime, all tested concentrations (Table 79)) was 0.38-1.13 and the FICI (CBD with Cefotetan at 4 μg/mL, CBD MIC taken as 256 μg/mL) was 1.016. For the same molecule, the FICI (CBD with Cefotetan at 8 μg/mL, CBD MIC taken as 256 μg/mL) was 1.031, the FICI (CBD with Cefotetan at 16 μg/mL, CBD MIC taken as 256 μg/mL) was 1.0625 and the FICI (CBD with Cefotetan at 32 μg/mL, CBD MIC taken as 256 μg/mL) was 1.125. For the same molecule, the FICI (CBD with Cefotetan at 64 μg/mL, CBD MIC taken as 256 μg/mL) was 1.25, the FICI (CBD with Cefotetan at 128 μg/mL, CBD MIC taken as 256 μg/mL) was 1.5 and the “FICI range (MIC table)” value (CBD with Cefotetan, Acinetobacter baumannii ATCC 19606) was 1.02-1.5. It also gave an FICI (CBD with Ceftazidime at 0.5 μg/mL, Acinetobacter baumannii ATCC 19606) of 1.125, an FICI (CBD with Ceftazidime at 1 μg/mL, Acinetobacter baumannii ATCC 19606) of 1.25 and an FICI (CBD with Ceftazidime at 2 μg/mL, Acinetobacter baumannii ATCC 19606) of 1.5. The FICI (CBD with Ceftazidime at 4 μg/mL, Acinetobacter baumannii ATCC 19606) was 1.125, the FICI (CBD with Ceftazidime at 8 μg/mL, Acinetobacter baumannii ATCC 19606) was 2.0625 and the FICI (CBD with Ceftazidime at 16 μg/mL, Acinetobacter baumannii ATCC 19606) was 4. The “FICI range (MIC table)” value (CBD with Ceftazidime, Acinetobacter baumannii ATCC 19606) was 1.13-4, the FICI (CBD with Cefuroxime at 4 μg/mL, Acinetobacter baumannii ATCC 19606) was 1.0625 and the FICI (CBD with Cefuroxime at 8 μg/mL, Acinetobacter baumannii ATCC 19606) was 1.125. For the same molecule, the FICI (CBD with Cefuroxime at 16 μg/mL, Acinetobacter baumannii ATCC 19606) was 0.375, the FICI (CBD with Cefuroxime at 32 μg/mL, Acinetobacter baumannii ATCC 19606, listed as CBD) was 0.5625 and 0.625 and the FICI (CBD with Cefuroxime at 64 μg/mL, Acinetobacter baumannii ATCC 19606) was 1. The FICI (CBD with Cefuroxime at 128 μg/mL, Acinetobacter baumannii ATCC 19606) was 2, the “FICI range (Synergy table)” value (CBD with Cefuroxime, Acinetobacter baumannii ATCC 19606) was 0.38 and the FICI (CBD with Colistin at 0.031 μg/mL, Acinetobacter baumannii ATCC 19606) was 0.04662. The FICI (CBD with Colistin at 0.062 μg/mL, Acinetobacter baumannii ATCC 19606) was 0.06981, the FICI (CBD with Colistin at 0.5 μg/mL, Acinetobacter baumannii ATCC 19606, listed as CBD) was 0.501 and 0.5039 and the FICI (CBD with Colistin at 1 μg/mL, Acinetobacter baumannii ATCC 19606) was 1. The “FICI range (MIC table)” value [1] was 0.05-1, the “FICI range (Synergy table)” value [1] was 0.05-0.5 and the “FICI range (MIC table)” value [2] was 0.07-1.02. For the same molecule, the “FICI range (Synergy table)” value [2] was 0.09-1.13, the FICI (CBD with MCC_6442 at 0.5 μg/mL, Acinetobacter baumannii ATCC 19606) was 1.016 and the FICI (CBD with MCC_6442 at 1 μg/mL, Acinetobacter baumannii ATCC 19606) was 0.09375. For the same molecule, the FICI (CBD with MCC_6442 at 2 μg/mL, Acinetobacter baumannii ATCC 19606) was 0.06641, the FICI (CBD with MCC_6442 at 4 μg/mL, Acinetobacter baumannii ATCC 19606) was 0.127 and the FICI range (CBD with Octapeptin C4, Synergy table (Table 85), listed as CBD) was 0.28-0.5 and 0.19-0.5. For the same molecule, the FICI range (CBD with Octapeptin C4, all tested concentrations (Table 83), listed as CBD) was 0.28-1.13 and 0.19-1.06, the FICI (CBD with Octapeptin C4 at 0.25 μg/mL, CBD MIC taken as 256 μg/mL) was 1.031 and the FICI (CBD with Octapeptin C4 at 0.25 μg/mL, CBD MIC taken as 256 μg/mL, listed as cannabidiol) was 1.016. For the same molecule, the FICI (CBD with Octapeptin C4 at 0.5 μg/mL, CBD MIC taken as 256 μg/mL) was 1.0625 and 1.031, the FICI (CBD with Octapeptin C4 at 1 μg/mL, CBD MIC taken as 256 μg/mL) was 1.125 and 1.0625 and the FICI (CBD with Octapeptin C4 at 2 μg/mL, CBD MIC taken as 256 μg/mL) was 0.2812 and 0.1875. The FICI (CBD with Octapeptin C4 at 4 μg/mL, CBD MIC taken as 256 μg/mL) was 0.5078 and 0.2578 and the FICI (CBD with Octapeptin C4 at […], CBD MIC taken as 256 μg/mL) was 1.016.
